Converted amounts (≈) assume the structure as drawn.
Tests used:
[1] = system: E. histolytica trophozoites (virulent HM-1 strain); conditions: 48 h
[2] = system: E. histolytica trophozoites; conditions: 48 h; ref [10]; read-out: IC50 E. histolytica trophozoites; cited from earlier work
[3] = system: E. histolytica trophozoites (virulent HM-1 strain); test: microbe, parasite or virus in culture; conditions: Entamoeba histolytica, 48 h, read-out: IC50 HM-1, 48 h, flow cytometry
BEAS-2B cells = test: MTT cytotoxicity assay; format: cell-based, human; conditions: 24 h
[4] = system: E. histolytica trophozoites; test: Cell morphology by confocal microscopy (actin); format: cell-based, Entamoeba histolytica; conditions: phalloidin-rhodamine, treatment with IC50
Procedure: Then, the culture medium was removed, and the adhered cells were fixed with 4% paraformaldehyde for 1 h at 37 °C. The samples were washed three times with 1× PBS and incubated with 1:50 phalloidin–rhodamine (R415, Invitrogen; Carlsbad, CA, USA) for 1 h at 37 °C. Finally, the cells were washed, mounted with VectaShield/DAPI medium (Vector Laboratories; Newark, CA, USA), and observed with a confocal microscope (LSM-700, Zeiss; Oberkochen, Germany).

[5] = Paraclinical analysis (serum biochemistry, hematic biometry) in ALA hamsters; format: in vivo, Mesocricetus auratus
Procedure: Serum was obtained by centrifugation at 3500 rpm and frozen at −70 °C until analysis. Hematic biometry was performed in a hematology autoanalyzer system (BC-2300, Mindray; Shenzhen, China), and biochemical parameters were made on an automatic medical system (Prestige 24i, Tokyo Boeki; Kanagawa, Japan).

[6] = in vivo
Procedure: After blood samples were obtained, the hamsters were sacrificed with a lethal dose of sodium pentobarbital, followed by a cervical fracture. They were mounted on a dissecting board for the necropsy. A complete mid-laparotomy was performed to remove the lungs, spleen, heart, liver, and kidneys. An excisional biopsy was performed to recover the ALA lesions for morphometric analysis. The organs and ALA lesions were rinsed with 1× PBS, weighed, and adherent tissue was removed. […] Later, the inclusion protocol was performed to obtain histological sections (3 μm thick) with a rotatory microtome (RM2125-RTS, Leica; Wetzlar, Germany). Tissue slices were stained with hematoxylin-eosin (Merck; Rahway, NJ, USA), mounted on coverslips with Entellan^TM-New (Merck; Rahway, NJ, USA), and observed with optical microscopy (Eclipse 80i, Nikon; Tokio, Japan).

[7] = system: E. histolytica trophozoites (amoebic liver abscess); test: Amoebic liver abscess (ALA) model, antiparasitic protocol; format: in vivo, Mesocricetus auratus
Text: M. auratus was used as an animal model because the hamster is naturally susceptible to infection by E. histolytica and can develop amoebic colitis or extraintestinal complications such as an ALA [71]. In this context, the hamster can be used to search for new alternative therapeutic agents against amoebiasis. The hamsters were acquired from Charles River Laboratories Inc. (Wilmington, MA, USA) in 2017 by Centro de Investigación y de Estudios Avanzados del Instituto Politécnico Nacional ([…]-IPN). […] Male hamsters (sexually mature and homozygous) weighing 95 ± 5 g and ≈10 weeks old were selected for the experiments. They were maintained in aseptic conditions at 25 ± 1 °C, 50 ± 3% humidity, a 12 h photoperiod, and ad libitum access to a standard diet (LabDiet; Richmond, IN, USA) and water (Figure 5A). The hamsters were housed in polycarbonate boxes (five per box), with an American Iron and Steel Institute (AISI) lid and wood shavings as bedding, in a controlled room of the Animal Production and Experimentation Unit (UPEAL) from […]-IPN (Figure 5A). Additionally, the health state of the hamsters and their adaptation to the new laboratory conditions were evaluated for 15 days to decrease their stress and anxiety levels. This study was carried out according to the Official Mexican Regulations (NOM-062-ZOO-1999) and NC3Rs ARRIVE [60, 72]. The protocol was approved by the Institutional Animal Care and Use Committee (Reg. No. 0183-16). Finally, the hamsters were not subjected to any previous experimental procedure or any additional treatment before beginning the experimental procedures (see File S1, NC3Rs ARRIVE Guidelines Checklist). Compounds that are prohibited and/or not recommended for use in animals by the American Veterinary Medical Association (Guidelines for the Euthanasia of Animals) were not used.
These experiments were performed with three independent biological replicates. For each replicate, twenty-five hamsters were randomly distributed (simple type) into five experimental groups (five animals per group). The sample size was determined based on the Organization for Economic Cooperation and Development (OECD) recommendations that establish the minimum number of individuals required for the tests so as not to sacrifice animals unnecessarily. Laparotomy was performed in aseptic conditions by using depilation, iodine solution, as well as sterile field cloths. Subsequently, an intra-hepatic puncture was made to deliver 1.5 × 10^6 virulent E. histolytica trophozoites in 100 μL of 1× PBS into the left hepatic lobe for ALA induction (Figure 5A-3). The injection site was immediately covered by applying a gel foam pad to maintain hemostasis. The abdominal layers were sutured discontinuously by single vertical stitches using Vicryl synthetic absorbable suture with a triangular pointed half circle needle. Irregular edges or folds in the surgical wound were eliminated to avoid tissue devitalization or possible infections. The development of a hepatic ALA was monitored for 4 days (Figure 5A-4).
(Figure 5B). The compounds were administered by the i.p. route because the peritoneal cavity presents rapid fluid absorption into the bloodstream, and initial biotransformation by the gastrointestinal tract is avoided. […] The hamsters were evaluated 24 h post-treatment to detect any signs of discomfort/pain or toxicity. The humane endpoint criteria used in this study were >20% body weight loss overnight, cachexia, recumbence, lethargy, respiratory distress, inability to reach food and water, lack of grooming, and ulceration around the surgical site, among others. Additionally, the weight of hamsters was determined at the beginning and end of the experiment with an electronic bascule (CS200, Ohaus; Parsippany, NJ, USA), and the ALA volume was calculated based on imaging (Figure 5B-1). […]

CHO-K1 cells = test: MTT cytotoxicity assay; format: cell-based, Chinese hamster
[8] = MTZ 0.16, KP 31.6, LL 15.6 μg/mL

O=c1c(O)c(-c2ccc(O)cc2)oc2cc(O)cc(O)c12 [KP]
biological activity symbol on IC50 HM-1 [1]: + | apoptotic trophozoites [1, 8]: 8.2% | necrotic trophozoites [1, 8]: 45.2% | decrease of size and granularity of the cell population ([1]; MTZ 0.16, KP 31.6, LL 15.6 μg/mL, vs Vh): 55% | IC50 [2]: 27.7 µM | IC50 [3]: 31.6 µg/mL (≈ 110 µM) | biological activity symbol on IC50 BEAS-2B (BEAS-2B cells): +/- | IC50 (BEAS-2B cells; Homo sapiens, BEAS-2B): 100 µg/mL (≈ 349 µM) | actin cytoskeleton alteration [4]: disorganized actin microfilaments | Erythrocytes ([5]; blood, ALA hamsters, i.p. 4 days): 6.8 ± 0.3 x10 6/mm3 | Band neutrophils ([5]; in vivo): 2 ± 1% | Basophils ([5]; in vivo): 0% | Eosinophils ([5]; in vivo): 0% | Immature forms ([5]; in vivo): 0% | Lymphocytes ([5]; in vivo): 39 ± 12% | Monocytes ([5]; in vivo): 0% | Segmented neutrophils ([5]; in vivo): 60 ± 11% | ALT (GPT) ([5]; in vivo, ip): 60 ± 10 U/L | Albumin ([5]; in vivo, ip): 1.7 ± 0.2 g/dL | Alkaline phosphatase ([5]; in vivo, ip): 349 ± 38 U/L | Cholesterol ([5]; in vivo, ip): 164 ± 43 mg/dL | Creatinine ([5]; in vivo, ip): 0.45 ± 0.1 mg/dL | Direct bilirubin ([5]; in vivo, ip): 0.37 ± 0.07 mg/dL | GGT ([5]; in vivo, ip): 9.3 ± 5.5 U/L | Glucose ([5]; in vivo, ip): 152 ± 11 mg/dL | Hematocrit ([5]; in vivo, ip): 48.8 ± 0.5% | Hemoglobin ([5]; in vivo, ip): 16.5 ± 0.2 g/dL | Indirect bilirubin ([5]; in vivo, ip): 0.01 ± 0.0 mg/dL | MCH ([5]; in vivo, ip): 24 ± 0.7 pg | MCHC ([5]; in vivo, ip): 33 ± 0.1 g/dL | MCV ([5]; in vivo, ip): 72 ± 2.3 fL | MPV ([5]; in vivo, ip): 7.25 ± 0.5 fL | PCT ([5]; in vivo, ip): 0.4 ± 0.2% | PDW ([5]; in vivo, ip): 9.15 ± 1.2 fL | Platelets ([5]; in vivo, ip): 537 ± 266 x106/μL | RDW-SD ([5]; in vivo, ip): 42.4 ± 0.3 fL | Total bilirubin ([5]; in vivo, ip): 0.38 ± 0.07 mg/dL | Total protein ([5]; in vivo, ip): 5.2 ± 0.2 g/dL | Triglycerides ([5]; in vivo, ip): 475 ± 28 mg/dL | Urea ([5]; in vivo, ip): 41.6 ± 4 mg/dL | leukocytes (mild leukocytosis) ([5]; in vivo, ip): 14,800 ± 700 /mm^3 | Heart largest diameter [6]: 1.06 ± 0.08 cm | Heart weight [6]: 0.38 ± 0.1 g | Kidneys largest diameter [6]: 1.2 ± 0.1 cm | Kidneys weight [6]: 0.49 ± 0.04 g | Liver largest diameter [6]: 3.88 ± 0.11 cm | Liver weight [6]: 5.9 ± 0.8 g | Lungs largest diameter [6]: 2.5 ± 0.05 cm | Lungs weight [6]: 0.74 ± 0.06 g | Spleen largest diameter [6]: 3.7 ± 0.1 cm | Spleen weight [6]: 0.36 ± 0.05 g | Survival rate (ALA hamsters, i.p. 4 days): 100% | Toxicity signs (in vivo, ip): None | Edges ([7]; ALA characteristics): Irregular and poorly defined | Leukocyte infiltrate ([7]; ALA characteristics): +/− | Liquid ([7]; ALA characteristics): +/− | Morphology ([7]; ALA characteristics): Ovoid | ALA Volume ([7]; MRI, i.p. 4 days): 738 ± 150 * mm^3 | MRI T1 signal of ALA ([7]; T1): Intermediate intensity | MRI T2 signal of ALA ([7]; T2): hypointense | ALA Weight ([7]; i.p. 4 days, KP 5, LL 10, MTZ 10 mg/kg/day): 0.86 ± 0.15 g | biological activity symbol on IC50 CHO-K1 (CHO-K1 cells; 24 h, MTT): +/- | IC50 (CHO-K1 cells; Cricetulus griseus, CHO-K1, 24 h, read-out: IC50 CHO-K1): 70 µg/mL (≈ 245 µM)
